Target: T1, CRTH2 (Homo sapiens, UniProt Q9Y5Y4)
T1 construct: expressed in transfected cells; host or cells: CHO cells
T1 sequence (Q9Y5Y4 1-395): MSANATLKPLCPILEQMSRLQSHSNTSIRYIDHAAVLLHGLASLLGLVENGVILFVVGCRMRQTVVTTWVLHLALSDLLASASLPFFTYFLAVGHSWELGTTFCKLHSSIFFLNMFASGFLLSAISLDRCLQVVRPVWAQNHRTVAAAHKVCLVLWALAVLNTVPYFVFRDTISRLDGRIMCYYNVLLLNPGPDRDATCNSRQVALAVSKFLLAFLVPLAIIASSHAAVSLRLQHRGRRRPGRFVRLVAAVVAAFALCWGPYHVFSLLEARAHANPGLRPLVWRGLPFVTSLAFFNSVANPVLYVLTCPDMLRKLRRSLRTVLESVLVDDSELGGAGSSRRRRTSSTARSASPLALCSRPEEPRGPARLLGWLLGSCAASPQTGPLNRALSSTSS
Assay: FRET based competitive immunoassay (cAMP) in CRTH2 expressing CHO cells
Format: cell-based
Conditions: CRTH2 expressing CHO cells incubated with forskolin and PGD2; Eu3+ cryptate-labeled anti-cAMP and d2-labeled cAMP
Description: FRET Assay: To evaluate potency compounds were tested in a FRET based competitive immunoassay in which CRTH2 expressing CHO cells were incubated in the presence of forskolin and PGD2 along with Eu3+ cryptate-labeled anti-cAMP and d2-labeled cAMP.

Row | Structure (SMILES) | IC50
1 | Cc1c(-c2cn(CCC(C(F)(F)F)C(F)(F)F)c(=O)c3ccccc23)c2cc(F)ccc2n1CC(=O)O [Example 96, 2-(5-fluoro-2-methyl-3-(1-oxo-2-(4,4,4-trifluoro-3-(trifluoromethyl)butyl)-1,2-dihydroisoquinolin-4-yl)-1H-indol-1-yl)acetic acid] | 296 nM
2 | Cc1c(-c2nn(Cc3nc4cc(C(F)(F)F)ccc4s3)c(=O)c3ccccc23)c2cc(Cl)ccc2n1CC(=O)O [Example 100, 2-(5-chloro-2-methyl-3-(4-oxo-3-((5-(trifluoromethyl)benzo[d]thiazol-2-yl)-methyl)-3,4-dihydrophthalazin-1-yl)-1H-indol-1-yl)acetic acid] | 81 nM
3 | Cc1c(-c2nn(Cc3ccc(OC(F)(F)F)cc3)c(=O)c3ccccc23)c2cc(Cl)ccc2n1CC(=O)O [Example 102, 2-(5-chloro-2-methyl-3-(4-oxo-3-(4-(trifluoromethoxy)benzyl)-3,4-dihydrophthalazin-1-yl)-1H-indol-1-yl)acetic acid] | 27 nM
4 | Cc1c(-c2nn(C)c(=O)c3ccccc23)c2cc(Cl)ccc2n1CC(=O)O [Example 105, 2-(5-chloro-2-methyl-3-(3-methyl-4-oxo-3,4-dihydrophthalazin-1-yl)-1H-indol-1-yl)-acetic acid] | 121 nM
5 | CCn1nc(-c2c(C)n(CC(=O)O)c3ccc(Cl)cc23)c2ccccc2c1=O [Example 106, 2-(5-Chloro-3-(3-ethyl-4-oxo-3,4-dihydrophthalazin-1-yl)-2-methyl-1H-indol-1-yl)acetic acid] | 23 nM
6 | Cc1c(-c2nn(CC3CC3)c(=O)c3ccccc23)c2cc(Cl)ccc2n1CC(=O)O [Example 108, 2-(5-chloro-3-(3-(cyclopropylmethyl)-4-oxo-3,4-dihydrophthalazin-1-yl)-2-methyl-1H-indol-1-yl)acetic acid] | 22 nM
7 | Cc1c(-c2nn(CC(F)(F)F)c(=O)c3ccccc23)c2cc(Cl)ccc2n1CC(=O)O [Example 109, 2-(5-chloro-2-methyl-3-(4-oxo-3-(2,2,2-trifluoroethyl)-3,4-dihydro-phthalazin-1-yl)-1H-indol-1-yl)acetic acid] | 42 nM
8 | Cc1c(-c2nn(Cc3ccc(F)cc3)c(=O)c3ccccc23)c2cc(F)ccc2n1CC(=O)O [Example 111, 2-(5-fluoro-3-(3-(4-fluorobenzyl)-4-oxo-3,4-dihydrophthalazin-1-yl)-2-methyl-1H-indol-1-yl)acetic acid] | > 20 nM
9 | Cc1c(-c2nn(Cc3cccc(F)c3F)c(=O)c3ccccc23)c2cc(F)ccc2n1CC(=O)O [Example 112, 2-(3-(3-(2,3-difluorobenzyl)-4-oxo-3,4-dihydrophthalazin-1-yl)-5-fluoro-2-methyl-1H-indol-1-yl)acetic acid] | 19 nM
10 | Cc1c(-c2nn(Cc3nc4cc(C(F)(F)F)ccc4s3)c(=O)c3ccccc23)c2cc(F)ccc2n1CC(=O)O [Example 115, 2-(5-fluoro-2-methyl-3-(4-oxo-3-((5-(trifluoromethyl)benzo[d]thiazol-2-yl)-methyl)-3,4-dihydrophthalazin-1-yl)-1H-indol-1-yl)acetic acid] | 64 nM
11 | Cc1c(-c2nn(Cc3ccc(OC(F)(F)F)cc3)c(=O)c3ccccc23)c2cc(F)ccc2n1CC(=O)O [Example 117, 2-(5-fluoro-2-methyl-3-(4-oxo-3-(4-(trifluoromethoxy)benzyl)-3,4-dihydro-phthalazin-1-yl)-1H-indol-1-yl)acetic acid] | 22 nM
12 | Cc1cc(Cn2nc(-c3c(C)n(CC(=O)O)c4ccc(F)cc34)c3ccccc3c2=O)c2ccccc2n1 [Example 119, 2-(5-fluoro-2-methyl-3-(3-((2-methylquinolin-4-yl)methyl)-4-oxo-3,4-dihydro-phthalazin-1-yl)-1H-indol-1-yl)acetic acid] | 17 nM

More lines, in order of falling IC50, values ahead:

Row | IC50 | Structure (SMILES)
13 | 17 nM | Cc1c(-c2nn(Cc3ccccc3F)c(=O)c3ccccc23)c2cc(Cl)ccc2n1CC(=O)O [Example 98, 2-(5-Chloro-3-(3-(2-fluorobenzyl)-4-oxo-3,4-dihydrophthalazin-1-yl)-2-methyl-1H-indol-1-yl)acetic acid]
14 | 14 nM | Cc1c(-c2nn(Cc3ccccc3F)c(=O)c3ccccc23)c2cc(F)ccc2n1CC(=O)O [Example 113, 2-(5-fluoro-3-(3-(2-fluorobenzyl)-4-oxo-3,4-dihydrophthalazin-1-yl)-2-methyl-1H-indol-1-yl)acetic acid]
15 | 13 nM | Cc1c(-c2nn(Cc3nc4cc(F)ccc4s3)c(=O)c3ccccc23)c2cc(F)ccc2n1CC(=O)O [Example 114, 2-(5-fluoro-3-(3-((5-fluorobenzo[d]thiazol-2-yl)methyl)-4-oxo-3,4-dihydro-phthalazin-1-yl)-2-methyl-1H-indol-1-yl)acetic acid]
16 | 11 nM | Cc1c(-c2nn(Cc3ccc4ccccc4n3)c(=O)c3ccccc23)c2cc(Cl)ccc2n1CC(=O)O [Example 103, 2-(5-chloro-2-methyl-3-(4-oxo-3-(quinolin-2-ylmethyl)-3,4-dihydro-phthalazin-1-yl)-1H-indol-1-yl)acetic acid]
17 | 10 nM | Cc1c(-c2nn(Cc3nc4cc(F)ccc4s3)c(=O)c3ccccc23)c2cc(Cl)ccc2n1CC(=O)O [Example 99, 2-(5-chloro-3-(3-((5-fluorobenzo[d]thiazol-2-yl)methyl)-4-oxo-3,4-dihydrophthalazin-1-yl)-2-methyl-1H-indol-1-yl)acetic acid]
18 | 10 nM | Cc1c(-c2nn(Cc3c(F)cccc3F)c(=O)c3ccccc23)c2cc(Cl)ccc2n1CC(=O)O [Example 101, 2-(5-chloro-3-(3-(2,6-difluorobenzyl)-4-oxo-3,4-dihydrophthalazin-1-yl)-2-methyl-1H-indol-1-yl)acetic acid]
19 | 10 nM | Cc1cc(Cn2nc(-c3c(C)n(CC(=O)O)c4ccc(Cl)cc34)c3ccccc3c2=O)c2ccccc2n1 [Example 104, 2-(5-chloro-2-methyl-3-(3-((2-methylquinolin-4-yl)methyl)-4-oxo-3,4-dihydro-phthalazin-1-yl)-1H-indol-1-yl)acetic acid]
20 | 9 nM | Cc1c(-c2cn(Cc3ccccn3)c(=O)c3ccccc23)c2cc(F)ccc2n1CC(=O)O [Example 95, 2-(5-fluoro-2-methyl-3-(1-oxo-2-(pyridin-2-ylmethyl)-1,2-dihydro-isoquinolin-4-yl)-1H-indol-1-yl)acetic acid]
21 | 9 nM | Cc1c(-c2nn(Cc3ccc4ccccc4n3)c(=O)c3ccccc23)c2cc(F)ccc2n1CC(=O)O [Example 118, 2-(5-fluoro-2-methyl-3-(4-oxo-3-(quinolin-2-ylmethyl)-3,4-dihydro-phthalazin-1-yl)-1H-indol-1-yl)acetic acid]
22 | 7 nM | Cc1c(-c2nn(Cc3cccc(F)c3F)c(=O)c3ccccc23)c2cc(Cl)ccc2n1CC(=O)O [Example 97, 2-(5-chloro-3-(3-(2,3-difluorobenzyl)-4-oxo-3,4-dihydrophthalazin-1-yl)-2-methyl-1H-indol-1-yl)acetic acid]
23 | 7 nM | Cc1c(-c2nn(Cc3nc4ccccc4s3)c(=O)c3ccccc23)c2cc(F)ccc2n1CC(=O)O [Example 110, 2-(3-(3-(Benzo[d]thiazol-2-ylmethyl)-4-oxo-3,4-dihydrophthalazin-1-yl)-5-fluoro-2-methyl-1H-indol-1-yl)acetic acid]
24 | 7 nM | Cc1c(-c2nn(Cc3c(F)cccc3F)c(=O)c3ccccc23)c2cc(F)ccc2n1CC(=O)O [Example 116, 2-(3-(3-(2,6-difluorobenzyl)-4-oxo-3,4-dihydrophthalazin-1-yl)-5-fluoro-2-methyl-1H-indol-1-yl)acetic acid]

Reference: patent US20110105509A1 (Wyeth, LLC, priority 2009, published 2011)
